pKi: −log10 of the molar value.
Experiments:
[1] = target: T1, human NMB receptor (BB1) (Homo sapiens, UniProt P28336); assay: BB1 binding assay ([125I][Tyr4]bombesin displacement, CHO-K1 membranes); conditions: Table 1, human NMB receptor binding affinity; Ki from IC50 by Cheng-Prusoff; read-out: NMB Ki
T1 construct: expressed in transfected cells; membranes prepared from the cells
How it was run: (§1)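 Membranes from CHO-K1 cells stably expressing human NMB (BB1) or GRP (BB2) receptors, in 50 mM Tris-HCl pH 7.4 with BSA and protease inhibitors, incubated with [125I][Tyr4]bombesin (<0.1 nM) for 60 min (BB1) or 90 min (BB2). Nonspecific binding defined with 1 μM bombesin; filtration and gamma counting; IC50 converted to Ki by Cheng-Prusoff.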

[2] = target: T2, human GRP receptor (BB2) (Homo sapiens, UniProt P30550); assay: BB2 binding assay ([125I][Tyr4]bombesin displacement, CHO-K1 membranes); conditions: Table 1, human GRP receptor binding affinity; Ki from IC50 by Cheng-Prusoff; read-out: GRP Kj
T2 construct: expressed in transfected cells; membranes prepared from the cells
T2 sequence (P30550 whole entry): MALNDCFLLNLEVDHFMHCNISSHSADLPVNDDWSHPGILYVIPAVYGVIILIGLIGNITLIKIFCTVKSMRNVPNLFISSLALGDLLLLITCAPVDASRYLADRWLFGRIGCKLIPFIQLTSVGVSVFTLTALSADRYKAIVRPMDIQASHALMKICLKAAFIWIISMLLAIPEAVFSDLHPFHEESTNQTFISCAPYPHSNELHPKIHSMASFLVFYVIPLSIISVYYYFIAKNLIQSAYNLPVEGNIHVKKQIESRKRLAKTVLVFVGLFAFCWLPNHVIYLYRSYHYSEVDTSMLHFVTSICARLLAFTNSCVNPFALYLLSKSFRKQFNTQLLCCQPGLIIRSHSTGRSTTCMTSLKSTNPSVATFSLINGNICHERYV
How it was run: as §1

[3] = system: sexual behaviour of sexually dysfunctional male rats; assay: Sexual behaviour of fluoxetine-induced sexually dysfunctional male rats; type: in vivo, rat
Protocol: Sprague Dawley male rats (Charles River, UK) were kept, 4 rats per cage, in a reversed lighting regime (12:12 hours, lights off at 5.00 h), with free access to food and water. The rats were pre-selected by being presented with a receptive female at 4 days intervals, i.e. every third day (having 2 clear days between presentations) until completing 6-7 trials of baseline determination. The animals showing consistently vigorous behaviour (ejaculatory latencies <300s) were chosen for further experiments. Animals were treated for 3 consecutive days with either vehicle (water) or fluoxetine (20 mg/kg, i.p., in a 2 ml/kg dosing volume). On the fourth day, the animals treated with water received vehicle (veh+veh) and the animals treated with fluoxetine received one of the three following treatments: Compound (1) (15 mg/kg, dissolved in 50% 2-hydroxypropyl-β-cyclodextrin in saline), vehicle (cyclodextrine), or yohimbine (2 mg/kg dissolved in water). All treatments were administered i.p. in a 1 ml/kg volume, 1 h before tests.
(§2) For all the sexual behaviour tests, the males were placed in an observation arena (50-60 cm diameter), starting 5 hours into the dark cycle and observed under red illumination. Three to 4 minutes after placing the male in the arena, a receptive female (ovariectomised, bearing a 7 mm Silastic implant of oestradiol benzoate) was introduced to the arena and the following parameters noted: Mount Latency: time (in seconds) taken between introduction of female and first mount. A maximum time of 15 minutes (900 seconds) was allowed, and the test terminated if no mounts were recorded within that time (FIG. 16), Ejaculation Latency: time (in seconds) taken from first intromission to ejaculation. A maximum time of 30 minutes (1800 seconds) was given, and the test terminated if ejaculation was not achieved in that time (FIG. 17), Percentage of males achieving ejaculation within 30 minutes was calculated (FIG. 18).
A one-way ANOVA followed by Dunnett's t test was used to compare the fluoxetine+vehicle group and other groups for mount and ejaculatory latencies. Percentage of animals ejaculating was analysed using a Chi-square test followed by Fisher's test. (*: P<0.05, **: P<0.01, ***: P<0.001; n=15-19).

[4] = system: sexual behaviour of normal male rats; assay: Sexual behaviour of normal (sexually vigorous) male rats; type: in vivo, rat; conditions: Compound (1) 15 mg/kg or Fluoxetine 20 mg/kg i.p. 1 h before test
Protocol: The potentially stimulatory effect of Compound (1) on male sexual behaviour has been tested on sexually vigorous rats. Sprague Dawley male rats (Charles River, UK) were kept, 4 rats per cage, in a reversed lighting regime (12:12 hours, lights off at 5.00 h), with free access to food and water. The rats were pre-selected by being presented with a receptive female at 4 days intervals, i.e. every third day (having 2 clear days between presentations) until completing 6-7 […] of baseline determination. The animals showing consistently vigorous behaviour (ejaculatory latencies <300s) were chosen for further experiments (n—24). Animals were randomised into three groups. All animals received all three treatments following a latin-square design. Treatments were administered once a week, with a baseline test in between treatments (4 days intervals between baseline and test day). Treatments were Compound (1) (15 mg/kg, dissolved in 50% 2-hydroxypropyl-β-cyclodextrin in saline), vehicle, or Fluoxetine (20 mg/kg dissolved in 100% DMSO). All treatments were administered i.p. in a 1 ml/kg volume, 1 h before tests.
as §2, with “11), Intromission Latency: time (in seconds) taken between introduction of female and first intromission (FIG. 12), Number of Mounts: to reach ejaculation. When ejaculation was not reached, the number of mounts was not analyzed, Number of Intromissions: to reach ejaculation. When ejaculation was not reached, the number of intromissions was not analyzed (FIG. 13 is number of mounts+intromissions),” for “16),”, “14), and Refractory Period: time (in seconds) taken from ejaculation to the first mount” for “17), Percentage”, “the next series of sexual activity. In those animals reaching” for “males achieving”, “the test” for “within 30 minutes”, “terminated at the end of the refractory period, as indicated by the first mount of the next sexual cycle” for “calculated”, “15).” for “18).”
A one-way ANOVA followed by Dunnett's t test was used to compare treated vs vehicle groups each day of testing, for all the sexual behaviour parameters. (*P<0.05, **P<0.01; n=15-16).

[5] = fluoxetine 20 mg/kg i.p. for 3 consecutive days, vs vehicle+vehicle group

T1 sequence (P28336 whole entry): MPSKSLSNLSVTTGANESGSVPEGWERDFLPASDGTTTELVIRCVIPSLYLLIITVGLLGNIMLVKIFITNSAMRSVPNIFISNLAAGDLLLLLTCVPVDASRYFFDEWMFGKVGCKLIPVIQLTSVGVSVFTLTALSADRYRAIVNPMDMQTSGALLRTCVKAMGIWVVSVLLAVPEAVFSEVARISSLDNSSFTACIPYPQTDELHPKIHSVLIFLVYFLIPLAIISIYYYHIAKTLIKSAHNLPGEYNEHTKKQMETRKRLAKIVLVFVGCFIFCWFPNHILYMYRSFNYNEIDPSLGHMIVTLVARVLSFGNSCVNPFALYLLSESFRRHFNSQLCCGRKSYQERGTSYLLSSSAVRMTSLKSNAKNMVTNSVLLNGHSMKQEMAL

| SMILES | pKi [1] | melting point | other results |
| --- | --- | --- | --- |
| COc1ccc(C2(CNC(=O)[C@](C)(Cc3c[nH]c4ccccc34)Nc3nc(-c4ccccc4)co3)CCCCC2)nc1 [Example 14, (S)-3-(1H-Indol-3-yl)-N-[1-(5-methoxy-pyridin-2-yl)-cyclohexylmethyl]-2-methyl-2-(4-phenyl-oxazol-2-ylamino)-propionamide] | 6.97 | 85 to 90 °C | pKi [2]: 5.92 |
| C[C@@](Cc1c[nH]c2ccccc12)(NCc1ccc([N+](=O)[O-])cc1)C(=O)NCC1(c2ccccn2)CCCCC1 [Example 27, (S)-3-(1H-Indol-3-yl)-2-methyl-2-(4-nitro-benzylamino)-N-(1-pyridin-2-yl-cyclohexylmethyl)-propionamide] | 6.19 | 58 to 60 °C |  |
| COc1ccc(C2(CNC(=O)[C@](C)(Cc3c[nH]c4ccccc34)Nc3nc(-c4ccc(C#N)cc4)co3)CCCCC2)nc1 [Example 13, (S)-2-[4-(4-Cyano-phenyl)-oxazol-2-ylamino]-3-(1H-indol-3-yl)-N-[1-(5-methoxy-pyridin-2-yl)-cyclohexylmethyl]-2-methyl-propionamide] | 7.72 | 105 to 108 °C | pKi [2]: 5.86 |
| COC(=O)[C@@H]1[C@H]2C[C@H]3c4[nH]c5ccccc5c4CCN3C[C@@H]2CC[C@@H]1O [Yohimbine, yohimbine] |  |  | Mount Latency ([3]; fluoxetine-pretreated rats, Compound (1) 15 mg/kg or yohimbine 2 mg/kg i.p. 1 h before test, vs fluoxetine+vehicle (FIG. 16)): followed a similar trend, although this did not reach significance; Ejaculation Latency ([3]; fluoxetine-pretreated rats, Compound (1) 15 mg/kg or yohimbine 2 mg/kg i.p. 1 h before test, vs fluoxetine+vehicle (FIG. 17)): followed a similar trend, although this did not reach significance; percentage of animals ejaculating ([3]; fluoxetine-pretreated rats, Compound (1) 15 mg/kg or yohimbine 2 mg/kg i.p. 1 h before test, vs fluoxetine+vehicle (FIG. 18)): followed a similar trend, although this did not reach significance |
| COCC1(CNC(=O)[C@](C)(Cc2c[nH]c3ccccc23)Nc2nc(-c3ccc([N+](=O)[O-])cc3)co2)CCCCC1 [Example 10, (S)-3-(1H-Indol-3-yl)-N-(1-methoxymethyl-cyclohexylmethyl)-2-methyl-2-[4-(4-nitro-phenyl)-oxazol-2-ylamino]-propionamide] | 6.33 | 189 to 192 °C |  |
| CCc1coc(N[C@@](C)(Cc2c[nH]c3ccccc23)C(=O)NCC2(c3ccc(OC)cn3)CCCCC2)n1 [Example 15, (S)-2-(4-Ethyl-oxazol-2-ylamino)-3-(1H-indol-3-yl)-N-[1-(5-methoxy-pyridin-2-yl)-cyclohexylmethyl]-2-methyl-propionamide] | 6.67 | 60 to 65 °C | pKi [2]: 5.75 |
| Cc1cccc(N[C@@](C)(Cc2c[nH]c3ccccc23)C(=O)NCC2(c3ccccn3)CCCCC2)c1 [Example 22, (S)-3-(1H-Indol-3-yl)-2-methyl-N-(1-pyridin-2-yl-cyclohexylmethyl)-2-m-tolylamino-propionamide] | 6.19 | 70 to 75 °C |  |
| C[C@@](Cc1c[nH]c2ccccc12)(Nc1nc(-c2ccc([N+](=O)[O-])cc2)co1)C(=O)NCC(=O)c1ccccc1 [Example 11, (S)-3-(1H-Indol-3-yl)-2-methyl-2-[4-(4-nitro-phenyl)-oxazol-2-ylamino]-N-(2-oxo-2-phenyl-ethyl)-propionamide] | 5.25 | 80 to 90 °C |  |
| CNCCC(Oc1ccc(C(F)(F)F)cc1)c1ccccc1 (stereo not drawn) [Fluoxetine, reference compound] |  |  | Mount Latency ([4]; vs vehicle (FIG. 11)): significantly increased; Intromission Latency ([4]; vs vehicle (FIG. 12)): significantly increased; number of mounts and intromissions required to achieve ejaculation ([4]; vs vehicle (FIG. 13)): No changes; Ejaculation Latency ([4]; vs vehicle (FIG. 14)): also increased; Refractory Period ([4]; vs vehicle (FIG. 15)): also increased; Ejaculation Latency [3, 5]: significantly increased; Mount Latency [3, 5]: significantly increased; number of animals ejaculating [3, 5]: significantly lower |

Further compounds by rising pKi [1], results first:

| pKi [1] | melting point | SMILES | other results |
| --- | --- | --- | --- |
| 5.68 | 198 to 200 °C | C[C@@](Cc1c[nH]c2ccccc12)(Nc1nc2ccccc2o1)C(=O)NCC1(c2ccccn2)CCCCC1 [Example 17, (S)-2-(Benzooxazol-2-ylamino)-3-(1H-indol-3-yl)-2-methyl-N-(1-pyridin-2-yl-cyclohexylmethyl)-propionamide] |  |
| 6.52 | 180 to 195 °C | C[C@@](Cc1c[nH]c2ccccc12)(Nc1ccncc1)C(=O)NCC1(c2ccccn2)CCCCC1 [Example 18, (S)-3-(1H-Indol-3-yl)-2-methyl-2-(pyridin-4-ylamino)-N-(1-pyridin-2-yl-cyclohexylmethyl)-propionamide] |  |
| 6.86 | 113 to 115 °C | O=C(NCC1(c2ccccn2)CCCCC1)[C@@H](Cc1ccccc1)Nc1ccccc1 [Example 24, (R)-3-Phenyl-2-phenylamino-N-[1 1-pyridin-2-yl-cyclohexylmethyl)-propionamide] |  |
| 7.82 | 110 to 114 °C | COc1ccc(C2(CNC(=O)[C@](C)(Cc3c[nH]c4ccccc34)Nc3nc(-c4ccc([N+](=O)[O-])cc4)cs3)CCCCC2)nc1 [Example 16] |  |

Reference: patent US20020169101A1, “Treatment of sexual dysfunction” (priority 1999, published 2002)
